Assay results as given in ChEMBL document CHEMBL1201862, “PubChem BioAssay data set” (2004).
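Test compounds were applied to cells in 96-well plates for 48 hours at 5 doses. Abbreviation: GI50, concentration required for 50% inhibition of growth.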 Activity calls are given as the source filed them. Cut-off read from the data, not from the text of the source: active = GI50 up to about 1.1 µM and inactive = higher.

Legend:
Test in all cases: inhibition of tumour cell growth, NCI panel, 48 h
SF-539 = test system: SF-539
A498 = test system: A498
SR = test system: SR
HCT-15 = test system: HCT-15
K562 = test system: K562
HL-60 = test system: HL-60
CCRF-CEM = test system: CCRF-CEM
KM12 = test system: KM12
Malme-3M = test system: Malme-3M
OVCAR-5 = test system: OVCAR-5
SK-MEL-5 = test system: SK-MEL-5
OVCAR-8 = test system: OVCAR-8
LOX IMVI = test system: LOX IMVI
M14 = test system: M14
RPMI-8226 = test system: RPMI-8226
SK-OV-3 = test system: SK-OV-3
SNB-75 = test system: SNB-75
RXF 393 = test system: RXF 393
UACC-257 = test system: UACC-257
A549 = test system: A549

Measured: GI50

C/C(=C/CO[Si](C)(C)C(C)(C)C)C(=O)N(C)c1ccccc1I
inactive: SF-539 17.2 µM | A498 17.3 µM | SR 11.6 µM | K562 19.8 µM | HL-60 12.2 µM | CCRF-CEM 15.2 µM | KM12 16.5 µM | Malme-3M 14.3 µM | OVCAR-5 14.2 µM | SK-MEL-5 15.4 µM | OVCAR-8 16.9 µM | LOX IMVI 17.3 µM | M14 15.2 µM | RPMI-8226 19.4 µM | SK-OV-3 18 µM | SNB-75 19.1 µM | RXF 393 16.6 µM | UACC-257 13.3 µM | A549 16.6 µM
18.6 µM: HCT-15

CC(C)NC(=O)OCc1c(COC(=O)NC(C)C)n(C)c2c1ccc1sccc12
16.9 µM: HCT-15
inactive: SF-539 12.4 µM | A498 16.3 µM | SR 4.19 µM | K562 23.4 µM | HL-60 > 100 µM | CCRF-CEM 10.2 µM | KM12 15 µM | Malme-3M 3.15 µM | OVCAR-5 30.6 µM | SK-MEL-5 9.29 µM | OVCAR-8 > 100 µM | LOX IMVI 7.94 µM | M14 14.1 µM | RPMI-8226 9.73 µM | SK-OV-3 24.9 µM | SNB-75 14.4 µM | RXF 393 12.2 µM | UACC-257 15.8 µM | A549 > 36.6 µM
